{
  "source": "paper PMC10269622",
  "about": "“Blapstin, a Diapause-Specific Peptide-Like Peptide from the Chinese Medicinal Beetle Blaps rhynchopetera, Has Antifungal Function” (Microbiology Spectrum, 2023)",
  "key": {"[1]": {"tested_on": "established biofilms of C. albicans ATCC 10231", "assay": "Biofilm eradication assay (crystal violet)", "assay_type": "cell-based, Candida albicans", "details": "24 h preformed biofilm, 0.5× to 8× MIC, 37°C, absorbance at 600 nm", "procedure": "First, 100 μL of C. albicans ATCC 10231 suspension (1 × 10^6 CFU/mL) was added to each well of a sterile 96-well plate. The plate was incubated at 37°C for 24 h to make the biofilm adhere to the walls and washed three times with PBS. Next, 100 μL of serial dilutions of blapstin (0.5×, 1×, 2×, 4×, and 8× MIC) prepared using YM medium was added to the plate, followed by incubation at 37°C for 24 h. Fluconazole at 10 μM and clotrimazole at 10 μΜ were used as a positive control, and sterile 0.9% NaCl was used as a negative control. After incubation, the liquid in the plate was discarded and washed three times with PBS, followed by the addition of 1% crystal violet solution to each well and incubation at room temperature for 10 min. Finally, the plate was washed three times with PBS, and 100 μL of 95% ethanol was added per well. The percentage of biofilm removal was estimated by measuring the absorbance at 600 nm."}, "chymotrypsin": {"tested_on": "chymotrypsin", "assay": "Effect of protease on antifungal activity", "assay_type": "in vitro ADME", "details": "0.5 μL of 10 mg/mL chymotrypsin with 20 μL of 225 μM peptide, 37°C, 1 h; read-out paper disk assay against C. albicans", "procedure": "(§1) (iii) Effects of protease. In terms of the influence of protease on the antifungal activity of blapstin, trypsin and chymotrypsin were selected for the experiment, and 0.5 μL of a 10-mg/mL concentration of proteases (including trypsin and chymotrypsin) and (20 μL(225 μM) of blapstin were mixed and incubated at 37°C for 1 h ([64]). Colistin E was used as the positive control, and 1.5% NaCl was used as the negative control. Then, these samples were transferred to the paper disks in the YM solid medium with C. albicans and incubated at 37°C for 18 h for the assay of antifungal activity."}, "trypsin": {"tested_on": "trypsin", "assay": "Effect of protease on antifungal activity", "assay_type": "in vitro ADME", "details": "0.5 μL of 10 mg/mL trypsin with 20 μL of 225 μM peptide, 37°C, 1 h; read-out paper disk assay against C. albicans", "procedure": "as §1"}, "C. albicans ATCC 10231": {"tested_on": "C. albicans ATCC 10231", "assay": "Cell membrane potential changes, DiSC3(5) staining", "assay_type": "cell-based, Candida albicans", "details": "16× MIC, 8× MIC and 1× MIC; 0.5 μM DiSC3(5), 100 mM KCl, measured for 60 min; dose-dependent; weaker than 10 μM valinomycin", "procedure": "DiSC3(5) is a fluorescent probe often used as a tracer dye to assess the mitochondrial membrane potential ([71]); therefore, we assessed the effects of blapstin on the cell membrane potential changes of C. albicans ATCC 10231 using DiSC3(5) staining. C. albicans ATCC 10231 was cultured in YM medium to logarithmic stage in a constant-temperature shaking machine at 37°C, centrifuged at 1,000 × g for 5 min to remove the supernatant, and washed with normal saline three times, and then normal saline containing 100 mM potassium chloride (KCl) was used to dilute the bacterial solution to an optical density at 600 nm (OD600) of 0.1. DiSC3(5) dye was dissolved by dimethyl sulfoxide (DMSO) into the mother solution and normal saline diluted with 15% DMSO so that the final concentration of DiSC3(5) added to the bacterial solution was 0.5 μM. The mixture was added to a special fluorescent 96-well plate with 190 μL in each well. The excitation/emission wavelengths were set at 622/670 nm, measurement was carried out with a multifunctional fluorescent enzyme labeling instrument (SynergyH1; Biotek, USA) until the value of the enzyme marker was stable, and then measurement was continued for 20 min. The final concentrations were 16× MIC, 8× MIC, and 1× MIC when 10 μL blapstin was added to the experimental group. […]"}},
  "note": "Bridge positions count the residues as written; N and C are the ends. Ends that are not written are not given here.",
  "data": [
    {"sequence": "VRVGPCDQVCSRTNPEKDECCRAHGHSGHSSCYGGRMNCYG (disulfide 6-21, 10-32, 20-39 (inferred)) [Blapstin]", "values": [
      {"measurement": "Eradication of established biofilms of C. albicans", "setting": "[1]", "value": "disrupted established biofilms"},
      {"measurement": "Sensitivity of antifungal activity to protease", "setting": "chymotrypsin", "value": "insensitive"},
      {"measurement": "Sensitivity of antifungal activity to protease", "setting": "trypsin", "value": "insensitive"},
      {"measurement": "Cellular DiSC3(5) fluorescence (membrane potential) compared with negative control", "setting": "C. albicans ATCC 10231", "value": "increased significantly"}
    ]}
  ]
}
